From patent publication US12612412B2, “Antiviral heterocyclic compounds” (Enanta Pharmaceuticals, Inc., priority 2021, dated 2026) come the findings set out here.

Where only a bound is given, the exact number is not on record here.

This assay relates to genotype A, "Long" strain RSV. The experiment in a line: RSV-A assay (CPE protection in Hep-2 cells, ATPlite readout). It counts as cell-based, Human respiratory syncytial virus (HRSV). The conditions noted are these: human respiratory syncytial virus, genotype A “Long” strain RSV, MOI 0.1, CPE protection, read-out: Human RSV-A (“Long”). An excerpt:
Hep-2 cells, (originally derived from tumors grown in irradiated-cortisonised weanling rats that had been injected with epidermoid carcinoma tissue from the larynx of a person, but later found to be indistinguishable from HeLa cells by PCR DNA analysis), were used for the culturing of genotype A, “Long” strain RSV. Flasks were inoculated with RSV and viral stocks were collected once cytopathic effect (CPE) was greater than 90%. Viral stocks in 25% sucrose media were snap frozen using liquid nitrogen to increase viral stability. Viral stock titers were quantified by tissue culture infectious dose 50% (TCID50) using 8,000 cells per well and 3-fold viral dilutions across a 96-well plate, cultured for 4 days. Viral stock titers were also quantified by a plaque forming unit assay, as described elsewhere.
Following extensive parameter testing, the final assay is run as follows: Hep-2 cells are seeded into the inner 60 wells of a 96-well plate at 8,000 cells per well in a volume of 50 μL using Growth Media (DMEM without phenol red, 1% L-Glut, 1% Penn/Strep, 1% nonessential amino acids, 10% heat-inactivated FBS). 2-fold serial dilutions of control and test compounds are added to the wells in duplicate in a total volume of 25 μL. Viral stock is then added to the wells at a multiplicity of infection (MOI) of 0.1 in a volume of 25 μL, bringing the total volume of each well to 100 μL. The MOI is calculated using the PFU/mL, or TCID50 if unavailable. Each 96-well plate has a control column of 6 wells with cells and virus but no compound (negative control, max CPE), a column with cells but no compound or virus (positive control, minimum CPE), and a column with no cells or virus or compound (background plate/reagent control). The control wells with cells but no virus are given an additional 25 μL of growth media containing an equal quantity of sucrose as those wells receiving the viral stock in order to keep consistent in media and volume conditions. The outer wells of the plate are filled with 125 μL of moat media (DMEM, 1% Penn/Strep) to act as a thermal and evaporative moat around the test wells. Following a 5-day incubation period, the plates are read using ATPlite (50 uL added per well), which quantifies the amount of ATP (a measure of cell health) present in each well. Assay plates are read using the Envision luminometer. […] EC50 ranges are as follows: A<0.2 μM; B>0.2 μM.

For `COc1cc(C(=O)NC[C@](O)(c2cc3c(c(-c4ccc(F)cc4)n2)OC[C@]3(C)C(N)=O)C(F)(F)F)ccc1OC[C@H](C)O` [Example 133], the EC50 was below 200 nM.
Take `C[C@]1(C(N)=O)COc2c1cc([C@@](O)(CNC(=O)c1ccc3nc(NS(C)(=O)=O)sc3c1)C(F)(F)F)nc2-c1ccc(F)cc1` [Example 140]: the EC50 was above 200 nM.
For the compound `COc1cc(C(=O)NC[C@](O)(c2cc3c(c(-c4ccc(F)cc4)n2)OC[C@]3(C)C(N)=O)C(F)(F)F)cc2c1cnn2C1CC1` [Example 144], the EC50 was above 200 nM.
In the case of `C[C@]1(C(N)=O)COc2c1cc([C@@](O)(CNC(=O)c1cc(Cl)c3cnn(C4CC4)c3c1)C(F)(F)F)nc2-c1ccc(F)cc1` [Example 145], the EC50 is above 200 nM.
`C[C@]1(C(N)=O)COc2c1cc([C@@](O)(CNC(=O)c1cc(F)c3cnn(C4CC4)c3c1)C(F)(F)F)nc2-c1ccc(F)cc1` [Example 146]: the EC50 was above 200 nM.
Under `COc1cc(C(=O)NC[C@](O)(c2cc3c(c(-c4ccc(F)cc4)n2)OC[C@]3(C)C(N)=O)C(F)(F)F)ccc1OC[C@@H](C)N` [Example 150] stands above 200 nM; under `CN[C@H](C)COc1ccc(C(=O)NC[C@](O)(c2cc3c(c(-c4ccc(F)cc4)n2)OC[C@]3(C)C(N)=O)C(F)(F)F)cc1OC` [Example 151], above 200 nM.
Take `C[C@]1(C(N)=O)COc2c1cc([C@@](O)(CNC(=O)c1ccc3nc(NC(=N)N)sc3c1)C(F)(F)F)nc2-c1ccc(F)cc1` [Example 159]: the EC50 is below 200 nM.
For `C[C@]1(C(N)=O)COc2c1cc([C@@](O)(CNC(=O)c1ccc3nc(NCCO)sc3c1)C(F)(F)F)nc2-c1ccc(F)cc1` [Example 162] the value was above 200 nM.
Under `C[C@H](O)CNc1nc2ccc(C(=O)NC[C@](O)(c3cc4c(c(-c5ccc(F)cc5)n3)OC[C@]4(C)C(N)=O)C(F)(F)F)cc2s1` [Example 163] stands below 200 nM; under `C[C@@H](O)CNc1nc2ccc(C(=O)NC[C@](O)(c3cc4c(c(-c5ccc(F)cc5)n3)OC[C@]4(C)C(N)=O)C(F)(F)F)cc2s1` [Example 164], below 200 nM.
For `Cc1cc2cc(C(=O)NC[C@](O)(c3cc4c(c(-c5ccc(F)cc5)n3)OC[C@]4(C)C(N)=O)C(F)(F)F)ccc2[nH]1` [Example 171] the value was below 200 nM.
Turning to `CCn1ncc2cc(C(=O)NC[C@](O)(c3cc4c(c(-c5ccc(F)cc5)n3)OC[C@]4(C)C(N)=O)C(F)(F)F)cc(Cl)c21` [Example 172], the EC50 is above 200 nM.
For `CCn1cc2cc(C(=O)NC[C@](O)(c3cc4c(c(-c5ccc(F)cc5)n3)OC[C@]4(C)C(N)=O)C(F)(F)F)cc(Cl)c2n1` [Example 173], the EC50 was below 200 nM.
For `Cc1cc2cc(C(=O)NC[C@](O)(c3cc4c(c(-c5ccc(F)cc5)n3)OC[C@]4(C)C(N)=O)C(F)(F)F)ccc2n1C` [Example 175], the EC50 is above 200 nM.
With `Cn1ccc2cc(C(=O)NC[C@](O)(c3cc4c(c(-c5ccc(F)cc5)n3)OC[C@]4(C)C(N)=O)C(F)(F)F)ccc21` [Example 176], the EC50 was above 200 nM.
With `COc1cc(C(=O)NC[C@](O)(c2cc3c(c(-c4ccc(F)cc4)n2)OC[C@]3(C)C(N)=O)C(F)(F)F)nc2cc(C)nn12` [Example 180], the EC50 was above 200 nM.
Regarding `Cc1cc2nc(C(=O)NC[C@](O)(c3cc4c(c(-c5ccc(F)cc5)n3)OC[C@]4(C)C(N)=O)C(F)(F)F)cc(C)n2n1` [Example 181], the EC50 was above 200 nM.
Under `C[C@]1(C(N)=O)COc2c1cc([C@@](O)(CNC(=O)c1ccc3cc(C4CC4)cn3c1)C(F)(F)F)nc2-c1ccc(F)cc1` [Example 185] stands above 200 nM; under `C[C@]1(C(N)=O)COc2c1cc([C@@](O)(CNC(=O)c1ccc3nc(C4CC4)cn3n1)C(F)(F)F)nc2-c1ccc(F)cc1` [Example 186], above 200 nM; under `C[C@]1(C(N)=O)COc2c1cc([C@@](O)(CNC(=O)c1ccc3nc(NC(=O)[C@@H](N)CO)sc3c1)C(F)(F)F)nc2-c1ccc(F)cc1` [Example 187], below 200 nM.
For `Cc1cc2ccc(C(=O)NC[C@](O)(c3cc4c(c(-c5ccc(F)cc5)n3)OC[C@]4(C)C(N)=O)C(F)(F)F)cn2c1` [Example 189] the value was above 200 nM; for `C[C@]1(C(N)=O)COc2c1cc([C@@](O)(CNC(=O)c1ccc3sc(N)nc3c1)C(F)(F)F)nc2-c1ccc(F)cc1` [Example 190], above 200 nM.
In the case of `C[C@]1(C(N)=O)COc2c1cc([C@@](O)(CNC(=O)c1ccc3oc(N)nc3c1)C(F)(F)F)nc2-c1ccc(F)cc1` [Example 191], the EC50 is below 200 nM.
Under `COc1cc(C(=O)NC[C@](O)(c2cc3c(c(-c4ccc(F)cc4)n2)OC[C@]3(C)C(N)=O)C(F)(F)F)nc2cc(C3CC3)nn12` [Example 192] stands above 200 nM.
As for `C[C@]1(C(N)=O)COc2c1cc([C@@](O)(CNC(=O)c1ccc3[nH]c(C4CC4)nc3c1)C(F)(F)F)nc2-c1ccc(F)cc1` [Example 193], the EC50 is above 200 nM.
For `Cc1cc(C(=O)NC[C@](O)(c2cc3c(c(-c4ccc(F)cc4)n2)OC[C@]3(C)C(N)=O)C(F)(F)F)cc2nc[nH]c12` [Example 194] the value was below 200 nM; for `C[C@]1(C(N)=O)COc2c1cc([C@@](O)(CNC(=O)c1cc(Br)c3[nH]cnc3c1)C(F)(F)F)nc2-c1ccc(F)cc1` [Example 195], below 200 nM; for `C[C@]1(C(N)=O)COc2c1cc([C@@](O)(CNC(=O)c1ccc3cc[nH]c3c1)C(F)(F)F)nc2-c1ccc(F)cc1` [Example 196], above 200 nM.
Under `C[C@]1(C(N)=O)COc2c1cc([C@@](O)(CNC(=O)c1cc(F)c3[nH]ccc3c1)C(F)(F)F)nc2-c1ccc(F)cc1` [Example 197] stands below 200 nM.
As for `C[C@]1(C(N)=O)COc2c1cc([C@@](O)(CNC(=O)c1cnn3cccc3c1Cl)C(F)(F)F)nc2-c1ccc(F)cc1` [Example 198], the EC50 was above 200 nM.
Under `C[C@]1(C(N)=O)COc2c1cc([C@@](O)(CNC(=O)c1cnn3cccc3c1)C(F)(F)F)nc2-c1ccc(F)cc1` [Example 201] stands above 200 nM; under `C[C@]1(C(N)=O)COc2c1cc([C@@](O)(CNC(=O)c1cc(Br)c3oc(N)nc3c1)C(F)(F)F)nc2-c1ccc(F)cc1` [Example 202], below 200 nM.
For `C[C@]1(C(N)=O)COc2c1cc([C@@](O)(CNC(=O)c1cc(Br)c3nc(N)oc3c1)C(F)(F)F)nc2-c1ccc(F)cc1` [Example 203] the value was below 200 nM.
For `C[C@]1(C(N)=O)COc2c1cc([C@@](O)(CNC(=O)c1cc(Br)c3[nH]c(C4CC4)nc3c1)C(F)(F)F)nc2-c1ccc(F)cc1` [Example 204] the value was below 200 nM; for `C[C@]1(C(N)=O)COc2c1cc([C@@](O)(CNC(=O)c1ccc3[nH]c(C4CC4)cc3c1)C(F)(F)F)nc2-c1ccc(F)cc1` [Example 205], above 200 nM.
`C[C@]1(C(N)=O)COc2c1cc([C@@](O)(CNC(=O)c1cc(OC3CC3)c3[nH]ccc3c1)C(F)(F)F)nc2-c1ccc(F)cc1` [Example 206]: the EC50 was below 200 nM.
Turning to `COc1ccccc1-c1cc(C(=O)NC[C@](O)(c2cc3c(c(-c4ccc(F)cc4)n2)OC[C@]3(C)C(N)=O)C(F)(F)F)n[nH]1` [Example 207], the EC50 was above 200 nM.
`COc1cccc(-c2cc(C(=O)NC[C@](O)(c3cc4c(c(-c5ccc(F)cc5)n3)OC[C@]4(C)C(N)=O)C(F)(F)F)n[nH]2)c1` [Example 208]: the EC50 was above 200 nM.
Take `COc1ccc(-c2cc(C(=O)NC[C@](O)(c3cc4c(c(-c5ccc(F)cc5)n3)OC[C@]4(C)C(N)=O)C(F)(F)F)n[nH]2)cc1` [Example 209]: the EC50 is above 200 nM.
For `C[C@]1(C(N)=O)COc2c1cc([C@@](O)(CNC(=O)c1cc3c(OC(F)F)cccc3[nH]1)C(F)(F)F)nc2-c1ccc(F)cc1` [Example 211] the value was below 200 nM; for `C[C@]1(C(N)=O)COc2c1cc([C@@](O)(CNC(=O)c1nc(-c3ccccc3)c[nH]1)C(F)(F)F)nc2-c1ccc(F)cc1` [Example 212], above 200 nM.
In the case of `COc1cccc(-n2ccc(C(=O)NC[C@](O)(c3cc4c(c(-c5ccc(F)cc5)n3)OC[C@]4(C)C(N)=O)C(F)(F)F)n2)c1` [Example 213], the EC50 is above 200 nM.
As for `COc1ccccc1-c1nc(C(=O)NC[C@](O)(c2cc3c(c(-c4ccc(F)cc4)n2)OC[C@]3(C)C(N)=O)C(F)(F)F)c[nH]1` [Example 214], the EC50 is above 200 nM.
For `CC(C)(O)CNC(=O)Nc1cc(C(=O)NC[C@](O)(c2cc3c(c(-c4ccc(F)cc4)n2)OC[C@]3(C)C(N)=O)C(F)(F)F)cc2cc(C3CC3)cnc12` [Example 215] the value was below 200 nM; for `Cc1cnc2c(NC(=O)OC3CC3)cc(C(=O)NC[C@](O)(c3cc4c(c(-c5ccc(F)cc5)n3)OC[C@]4(C)C(N)=O)C(F)(F)F)cc2c1` [Example 216], below 200 nM.
